Source: patent US20260125397A1, “MK2 DEGRADERS AND USES THEREOF” (Kymera Therapeutics, Inc., priority 2023, published 2026)

Columns and labels:
[1] = molecular target: T1, MK2 (Homo sapiens, UniProt P49137); experiment: MK2 degradation in human SW1353 cells (MSD, 24 h); type: cell-based; set-up: endogenous in cells; host or cells: SW-1353 (ATCC HTB-94); conditions: for Dmax: read-out: MK2 MSD SW 1353 24 h Dmax %; for DC50: read-out: MK2 MSD SW1353 degradation 24 h GMean External Abs DC50
Experimental: The human chondrocyte cancer cell line SW-1353 (ATCC(HTB-94)) was cultured in 96 well plates (Coming 3894) at a density of 200,000 cells per well in 100 microlitres in complete growth medium of Leibovitz's L-15 Medium (Gibco) pus 10% fetal Bovine Serum (Coming) and Penicillin/Streptomycin (SolarBio) at 37 degrees Celsius. A serial dilution of each compound (usually 3 to 5 fold serial dilutions up to 10 separate concentration points) was added to individual wells from a 10 millimolar stock solution, at a background concentration of 0.10% DMSO and the cells were shaken at 600 rpm for 5 minutes and then were cultured for 24 hours at 37 degrees Celsius. Separately, a custom MSD (MesoScaleDiscovery, L15XA-3) plate for detection of human MK2 was prepared by coating the plate with the commercial AbCam ab247272 reagent in 1× Phosphate Buffered Saline at 40 microlitres per well and incubated at 4 degrees Celsius overnight. The next day, the MSD plate was washed with 150 microlitres of Tween buffered saline, blocked with MSD blocking buffer (3% Blocker A from MSD), and washed again.
The cell plate was centrifuged at 3,200 g for 5 minutes and the supernatant was discarded and 100 microlitres of RIPA lysis buffer (containing proteinase inhibitors, Boston BioProducts BP-115D) was added and the plate was sealed and shaken on ice for 20 minutes. The plate was centrifuged as before and 70 microlitres of sample lysate was added to the MSD plates and they were shaken at room temperature for 1 hour at 600 rpm. The MSD plate was washed 3 times as before and then the primary MK2 detection antibody (Santa Cruz sc-100393) was added at a final concentration of 1 microgram per ml at 25 microlitres per well and shaken at room temperature for 1 hour at 600 rpm.
(§1) After 3 more washes, the secondary detection antibody (SULFO-Tag anti rabbit antibody R32AB-5) was added at a final concentration of 1 microgram per ml at 25 microlitres per well and shaken at room temperature for 1 hour at 600 rpm. After 3 more washes, the 1X MSD (diluted from 5X concentrate with water) reading buffer was added at 150 microlitres per well and read on the MSD instrument Meso Sector S 600.
(§2) The inhibition/degradation curves and DC50 values were plotted and calculated using XL Fit (version v5.3.1.3) using equation 201 and a 4 parameter logistic model whereby fit=(A+((B−A)/(1+((x/C)D))) where A is the Bottom and B is the Top and C is the IC50 and D is the slope and high C is the signal for the DMSO treated cells and Low C is the signal is the signal for the lysis buffer.

[2] = molecular target: T1, MK2; experiment: MK2 degradation in human THP-1 monocytic cells (MSD, 24 h); type: cell-based; set-up: endogenous in cells; conditions: THP-1 cells; for DC50: read-out: MK2 MSD THP-1 degradation 24 h GMean External Abs DC50
Experimental: The human monocytic cancer cell line THP-1 (ATCC (TIB-202)) was cultured in 96 well plates (Coming 3894) at a density of 200,000 cells per well in 100 microlitres in complete growth medium of RPMI 1640 (Gibco) pus 10% fetal Bovine Serum (Coming) and Penicillin/Streptomycin (SolarBio) at 37 degrees Celsius and 5% CO2. A serial dilution of each compound (usually 3 to 5 fold serial dilutions up to 10 separate concentration points) was added to individual wells from a 10 millimolar stock solution, at a background concentration of 0.1% DMSO and the cells were shaken at 600 rpm for 5 minutes and then were cultured for 24 hours at 37 degrees Celsius and 5% carbon dioxide. Separately, a custom MSD (MesoScaleDiscovery, L15XA-3) plate for detection of human MK2 was prepared by coating the plate with the commercial AbCarn ab247272 reagent in 1× Phosphate Buffered Saline at 40 microlitres per well and incubated at 4 degrees Celsius overnight. The next day, the MSD plate was washed with 150 microlitres of Tween buffered saline, blocked with MSD blocking buffer (3% BlockerA from MSD), and washed again.
The cell plate was centrifuged at 3,200 g for 5 minutes and the supernatant was discarded and 100 microlitres of RIPA lysis buffer (containing proteinase inhibitors, Boston BioProducts BP-115D) was added and the plate was sealed and shaken on ice for 20 minutes. The plate was centrifuged as before and 70 microlitres of sample lysate was added to the MSD plates and they were shaken at room temperature for I hour at 600 rpm. The MSD plate was washed 3 times as before and then the primary MK2 detection antibody (Santa Cruz sc-100393) was added at a final concentration of 1 microgram per ml at 25 microlitres per well and shaken at room temperature for 1 hour at 600 rpm.
as §1
as §2, with “IC50and” for “IC50 and”

T1 sequence (P49137 whole entry): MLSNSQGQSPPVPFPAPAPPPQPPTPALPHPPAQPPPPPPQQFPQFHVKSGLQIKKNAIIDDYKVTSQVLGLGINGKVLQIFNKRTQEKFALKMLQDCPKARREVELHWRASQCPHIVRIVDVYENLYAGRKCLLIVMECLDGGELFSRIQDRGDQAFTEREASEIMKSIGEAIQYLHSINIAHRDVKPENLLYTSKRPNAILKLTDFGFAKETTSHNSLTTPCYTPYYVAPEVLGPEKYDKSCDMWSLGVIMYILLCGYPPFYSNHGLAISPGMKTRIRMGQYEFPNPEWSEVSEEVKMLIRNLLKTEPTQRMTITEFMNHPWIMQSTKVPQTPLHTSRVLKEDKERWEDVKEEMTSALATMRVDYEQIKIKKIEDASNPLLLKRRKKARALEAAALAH

| SMILES | Dmax [1] | DC50 [1] | Dmax [2] | DC50 [2] |
| --- | --- | --- | --- | --- |
| Cn1c(=O)n(C2CCC(=O)NC2=O)c2ccc(N3CC(CN4CCN(c5ccc(-c6nccc(-c7cc8c([nH]7)C7(CC7)CNC8=O)n6)cc5)CC4)C3)cc21 (stereo not drawn) [I-45] | > 50% | > 100 nM | > 50% | > 100 nM |
| C[C@@H]1CNc2c(sc3ccc4nc(N5CCC(N(CC(F)F)C6CC7(CCN(c8ccc9c(c8)n(C)c(=O)n9C8CCC(=O)NC8=O)CC7)C6)CC5)ccc4c23)C(=O)N1 (stereo partly drawn) [I-46] | > 75% | < 1 nM | > 75% | < 1 nM |
| Cn1c(=O)n(C2CCC(=O)NC2=O)c2ccc(N3CC(CN4CCN(c5ccc(-c6nccc(-c7cc8c([nH]7)C7(CC7)CNC8=O)n6)cc5OC5CC5)CC4)C3)cc21 (stereo not drawn) [I-47] | > 50% | > 100 nM | > 50% | < 1 nM |
| Cn1c(=O)n(C2CCC(=O)NC2=O)c2ccc(N3CC(CN4CCN(c5ccc(-c6nccc(-c7cc8c([nH]7)C7(CC7)CNC8=O)n6)cc5C(F)(F)F)CC4)C3)cc21 (stereo not drawn) [I-48] | 50 to 75% | < 1 nM | > 75% | < 1 nM |
| Cn1c(=O)n(C2CCC(=O)NC2=O)c2ccc(N3CC(CN4CCN(c5ccc(-c6nccc(-c7cc8c([nH]7)C7(CC7)CNC8=O)n6)cc5C5CC5)CC4)C3)cc21 (stereo not drawn) [I-49] | > 50% | 10 to 100 nM | 50 to 75% | < 1 nM |
| C[C@@H]1CNc2c(sc3ccc4nc(N5CCN(CC6CC7(CCN(c8ccc9c(N%10CCC(=O)NC%10=O)cncc9c8)CC7)C6)CC5)ccc4c23)C(=O)N1 [I-50] | > 75% | < 1 nM | > 75% | < 1 nM |
| Cn1c(=O)n(C2CCC(=O)NC2=O)c2ccc(N3CCN(CC#Cc4ccc(-c5nccc(-c6cc7c([nH]6)C6(CC6)CNC7=O)n5)cc4)CC3)cc21 (stereo not drawn) [I-51] | > 50% | 1 to 10 nM | > 75% | < 1 nM |
| C[C@@H]1CNc2c(sc3ccc4nc(N5CCC(CN6CCC7(CC6)CN(c6ccc8c(c6)n(C)c(=O)n8C6CCC(=O)N(C)C6=O)C7)CC5)ccc4c23)C(=O)N1 (stereo partly drawn) [I-52] | > 75% | 1 to 10 nM | > 75% | > 100 nM |
| COc1cc(-c2nccc(-c3cc4c([nH]3)C3(CC3)CNC4=O)n2)ccc1N1CCN(CC2CN(c3ccc4c(c3)n(C)c(=O)n4C3CCC(=O)NC3=O)C2)CC1 (stereo not drawn) [I-54] | > 50% | < 1 nM | 50 to 75% | < 1 nM |
